Test results reported in patent US20240342111A1, “ISOMER-SPECIFIC NEUROPROTECTIVE EFFECT OF NATURAL RESERVATROL” (priority 2021, published 2024).

Tests used:
[1] = test system: Rat cortical neurons transfected with TyrRS siRNA; test: TyrRS siRNA knockdown, then excitotoxic NMDA, MTT assay; assay type: cell-based; settings: 24 hours
Description: Cells viability was assessed using MTT assay. […] Cells were then exposed to excitotoxic NMDA (500 μM for 5 minutes), and viability was assessed using MTT assay after 24 hours.
Primary cortical neuron cultures were obtained from E18 Sprague Dawley rats' cortices, which were dissected in Hibernate E (BrainBits) and dissociated using the Neural Tissue Dissociation kit (Miltenyi Biotec). For this, minced cortices were incubated in a pre-warmed enzyme mix at 37° C. for 15 min; tissues were then triturated and strained using a 40 μm cell strainer. After washing and centrifugation, neurons were seeded in 50 μg/ml poly-D-Lysine (Sigma Aldrich) coated tissue culture plates. NBActive-1 medium (BrainBits) supplemented with 100 U/ml of Penicillin-Streptomycin (Life Technologies), 2 mM L-Glutamine (Life Technologies), and 1 X N21 supplement (R&D Systems) was used as culture medium. Control (AM4635), TyrRS (s443), PARP1 (s130207) siRNA for transfection were obtained from Invitrogen. On 5 DIV, rat cortical neurons were transfected with 75 nM control or TyrRS siRNA using Dharmafect 3 Transfection Reagent. A second transfection was done two days later using 75 nM of TyrRS siRNA, followed by cell collection or assays after another 48 hours. For PARP1 siRNA, on 7 DIV, neurons were transfected with 75 nM siRNA for both control and PARP1 siRNA.
Rat cortical neurons (DIV 10-11) were exposed to different treatments after seeding 20,000 cells/well in 96-well plates. Cell viability was then assessed at 48 hours after the initial exposure to NMDA. 3-[4,5-dimethylthiazole-2-yl]-2,5-diphenyltetrazolium bromide (MTT) assays were used to assess change in cell viability. Cultured rat cortical neurons were incubated with MTT (0.5 mg/mL). […] The percentage of MTT reduced as measured by the difference between the absorbances at 570 nm read in a spectrophotometer (Spectramax 190R Molecular Devices, UK). The percentage of reduction of MTT was calculated comparing the difference of the absorbance at 570 of each sample. […]

PARP1 = test: Immunoblot of chromatin fraction for PARP1 and PAR; assay type: cell-based, rat; settings: 50 μM, 1 hour
Ligase IV = test: Immunoblot for DNA repair protein Ligase IV; assay type: cell-based, rat; settings: 5-50 μM, 4 hours
Text: Ac-K56-H3 is a marker of genomic stability, see Driscoll, R., Hudson, A. & Jackson, S. P. Yeast Rtt109 promotes genome stability by acetylating histone H3 on lysine 56. Science 315, 649-652, doi:10.1126/science.1135862 (2007), and DNA damage, see Tjeertes, J. V., Miller, K. M. & Jackson, S. P. Screen for DNA-damage-responsive histone modifications identifies H3K9Ac and H3K56Ac in human cells. EMBO J 28, 1878-1889, doi:10.1038/emboj.2009.119 (2009), and inhibition of PARP1 causes the downregulation of RAD51, see Hegan, D. C. et al. Inhibition of poly(ADP-ribose) polymerase down-regulates BRCA1 and RAD51 in a pathway mediated by E2F4 and p130. […] The western blot images of the protein levels of HPF1 was quantified using ImageJ.
Cultured neurons (DIV 9-10) were washed once with cold 1×PBS and lysed in cell lysis buffer (20 mM Tris-HCl (pH 7.5), 150 mM NaCl, 1 mM Na2EDTA, 1 mM EGTA, 1% Triton, 2.5 mM sodium pyrophosphate, 1 mM beta-glycerophosphate, 1 mM Na3VO4, 1 μg/ml leupeptin supplemented with protease inhibitor). […] Lysates were quantified using Bio-Rad Protein Assay, and an equal amount of protein was loaded onto a 4 to 12% gradient gel (NuPAGE-Invitrogen). […] Quantification for the western blots was done using ImageJ (Version 1.53c).

γ-H2AX foci = test: Immunostaining of DNA damage marker pSer139-H2AX (γ-H2AX) foci; assay type: cell-based, rat; settings: 24 hours; for Aβ-mediated accumulation of γ-H2AX foci: 50 μM in combination with Aβ 50 nM; for γ-H2AX foci: alone, 50 μM

| Structure (SMILES) | effect of TyrRS knockdown on viability under excitotoxic NMDA ([1]; low dose trans-RSV 5, 10 μM) | effect of TyrRS knockdown on toxic effects under excitotoxic NMDA ([1]; trans-RSV 50 μM) | PARP1 and PAR in the chromatin fraction (PARP1) | ligase IV protein levels (Ligase IV) | Aβ-mediated accumulation of γ-H2AX foci (γ-H2AX foci) | γ-H2AX foci (γ-H2AX foci) | effect of TyrRS knockdown on viability under excitotoxic NMDA ([1]; cis-RSV 50 μM) |
| --- | --- | --- | --- | --- | --- | --- | --- |
| Oc1ccc(/C=C/c2cc(O)cc(O)c2)cc1 [trans-RSV, trans-resveratrol] | blunted the neuroprotective effect | exacerbated the toxic effects | enhanced the association (‘trapping’) of PARP1 with chromatin | downregulated the protein levels | exacerbated the accumulation of γ-H2AX foci | caused the accumulation of γ-H2AX foci |  |
| Oc1ccc(/C=C\c2cc(O)cc(O)c2)cc1 [cis-RSV, cis-resveratrol] |  |  | downregulated PARP1 (170 kDa) and PAR modification in the chromatin fraction | upregulated them | rescued A β-mediated accumulation of γ-H2AX foci | downregulated the accumulation of γ-H2AX foci | blunted the neuroprotective effect |
